Where a name gives a salt, the structure may show the parent alone.
What follows are compounds tested against T1, Brd4 bromodomain 1 (BRD4(1)) (Homo sapiens, UniProt O60885) (assay: Inhibition of tetra-acetylated histone H4 binding to Brd4 bromodomain 1 (TR-FRET)). Details: tetra-acetylated histone H4 peptide, active = IC50 <30 μM.
T1 construct: Illustrative results with the first bromodomain of Brd4; made in house; host or cells: E. coli BL21 (DE3)
Parameters: key: Active: Compounds with an IC50 value less than 30 μM were deemed to be active.; Not Active: Compounds with an IC50 value less than 30 μM were deemed to be active
Procedure: Proteins were cloned and overexpressed with a N-terminal 6×His tag, then purified by nickel affinity followed by size exclusion chromatography. Briefly, E. coli BL21 (DE3) cells were transformed with a recombinant expression vector encoding N-terminally Nickel affinity tagged bromodomains from Brd2, Brd3, Brd4. Cell cultures were incubated at 37° C. with shaking to the appropriate density and induced overnight with IPTG. The supernatant of lysed cells was loaded onto Ni-IDA column for purification. Eluted protein is pooled, concentrated and further purified by size exclusion chromatography. Fractions representing monomeric protein were pooled, concentrated, aliquoted, and frozen at −80° C. for use in subsequent experiments.
Binding of tetra-acetylated histone H4 and BET bromodomains was confirmed by a Time Resolved Fluorescence Resonance Energy Transfer (TR-FRET) method. N-terminally His-tagged bromodomains (200 nM) and biotinylated tetra-acetylated histone H4 peptide (25-50 nM, Millipore) were incubated in the presence of Europium Cryptate-labeled streptavidin (Cisbio Cat. #610SAKLB) and XL665-labeled monoclonal anti-His antibody (Cisbio Cat. #61HISXLB) in a white 96 well microtiter plate (Greiner). For inhibition assays, serially diluted test compound was added to these reactions in a 0.2% final concentration of DMSO. Final buffer concentrations were 30 mM HEPES pH 7.4, 30 mM NaCl, 0.3 mM CHAPS, 20 mM phosphate pH 7.0, 320 mM KF, 0.08% BSA). After a 2-h incubation at room temperature, the fluorescence by FRET was measured at 665 and 620 nm by a SynergyH4 plate reader (Biotek). Illustrative results with the first bromodomain of Brd4 and the second bromodomain of Brd2 are shown below. The binding inhibitory activity was shown by a decrease in 665 nm fluorescence relative to 620 nm. IC50 values were determined from a dose response curve.
With `Cc1noc(C)c1-c1cc(N)c(=O)n(C(C)c2ccc(C#N)cc2)c1` (stereo not shown) [Example 269, 4-(1-(3-amino-5-(3,5-dimethylisoxazol-4-yl)-2-oxopyridin-1(2H)-yl)ethyl)benzonitrile] the “FRET activity (IC50 <30 μM) BRD4(1)” value was “Not Active”. With `CNC(=O)c1onc(C)c1-c1ccc(=O)n(Cc2ccc(Cl)cc2)c1` [Example 265, 4-(1-(4-chlorobenzyl)-6-oxo-1,6-dihydropyridin-3-yl)-N,3-dimethylisoxazole-5-carboxamide] the “FRET activity (IC50 <30 μM) BRD4(1)” value was “Not Active”. `Cc1noc(C)c1-c1cc(N)c(=O)n(C)c1` [Example 224, 3-Amino-5-(3,5-dimethylisoxazol-4-yl)-1-methylpyridin-2(1H)-one] was tested, and the “FRET activity (IC50 <30 μM) BRD4(1)” value was “Active”. For `O=C1CC(c2ccc(=O)n(Cc3ccccc3)c2)CN1` (stereo not shown) [Example 268, 1-Benzyl-5-(5-oxopyrrolidin-3-yl)pyridin-2(1H)-one], the “FRET activity (IC50 <30 μM) BRD4(1)” value was “Not Active”. With `Cc1noc(C)c1-c1cc(N2CCNCC2)c(=O)n(Cc2ccccc2)c1` [Example 161, 1-Benzyl-5-(3,5-dimethylisoxazol-4-yl)-3-(piperazin-1-yl)pyridin-2(1H)-one Hydrochloride] the “FRET activity (IC50 <30 μM) BRD4(1)” value was “Not Active”. With `Cc1noc(C)c1-c1cc(Nc2cncnc2)c(=O)n(Cc2ccccc2)c1` [Example 236, 1-benzyl-5-(3,5-dimethylisoxazol-4-yl)-3-(pyrimidin-5-ylamino)pyridin-2(1H)-one] the “FRET activity (IC50 <30 μM) BRD4(1)” value was “Active”. `CON(C)C(=O)c1noc(C)c1-c1ccc(=O)n(Cc2ccccc2)c1` [Example 249, 4-(1-benzyl-6-oxo-1,6-dihydropyridin-3-yl)-N-methoxy-N,5-dimethylisoxazole-3-carboxamide] was tested, and the “FRET activity (IC50 <30 μM) BRD4(1)” value was “Not Active”. For `COC(=O)c1onc(C)c1-c1ccc(=O)n(Cc2ccc(Cl)cc2)c1` [Example 259, methyl 4-(1-(4-chlorobenzyl)-6-oxo-1,6-dihydropyridin-3-yl)-3-methylisoxazole-5-carboxylate], the “FRET activity (IC50 <30 μM) BRD4(1)” value was “Not Active”. In the case of `Cc1noc(C)c1-c1cc(NS(C)(=O)=O)c(=O)n(Cc2ccccc2)c1` [Example 200, N-(1-Benzyl-5-(3,5-dimethylisoxazol-4-yl)-2-oxo-1,2-dihydropyridin-3-yl)methanesulfonamide], the “FRET activity (IC50 <30 μM) BRD4(1)” value is reported as “Not Active”. With `Cc1noc(C(=O)O)c1-c1ccc(=O)n(Cc2ccc(Cl)cc2)c1` [Example 260, 4-(1-(4-chlorobenzyl)-6-oxo-1,6-dihydropyridin-3-yl)-3-methylisoxazole-5-carboxylic acid] the “FRET activity (IC50 <30 μM) BRD4(1)” value was “Not Active”. For `Cc1noc(C)c1-c1cc(Nc2ccc(C#N)nc2)c(=O)n(Cc2ccccc2)c1` [Example 232, 5-((1-benzyl-5-(3,5-dimethylisoxazol-4-yl)-2-oxo-1,2-dihydropyridin-3-yl)amino)picolinonitrile], the “FRET activity (IC50 <30 μM) BRD4(1)” value was “Active”. With `Cc1noc(C)c1-c1cc(Nc2cnccn2)c(=O)n(Cc2ccccc2)c1` [Example 235, 1-benzyl-5-(3,5-dimethylisoxazol-4-yl)-3-(pyrazin-2-ylamino)pyridin-2(1H)-one] the “FRET activity (IC50 <30 μM) BRD4(1)” value was “Active”. With `Cc1onc(C(=O)O)c1-c1ccc(=O)n(Cc2ccc(Cl)cc2)c1` [Example 225, 4-(1-(4-Chlorobenzyl)-6-oxo-1,6-dihydropyridin-3-yl)-5-methylisoxazole-3-carboxylic acid] the “FRET activity (IC50 <30 μM) BRD4(1)” value was “Not Active”. With `Cc1onc(C(N)=O)c1-c1ccc(=O)n(Cc2ccc(Cl)cc2)c1` [Example 202, 4-(1-(4-Chlorobenzyl)-6-oxo-1,6-dihydropyridin-3-yl)-5-methylisoxazole-3-carboxamide] the “FRET activity (IC50 <30 μM) BRD4(1)” value was “Active”. In the case of `Cc1noc(C)c1CNc1ccc(=O)n(Cc2ccccc2)n1` [Example 201, 2-Benzyl-6-(((3,5-dimethylisoxazol-4-yl)methyl)amino)pyridazin-3(2H)-one], the “FRET activity (IC50 <30 μM) BRD4(1)” value is reported as “Not Active”. `Cc1noc(C)c1-c1cc(CN)c(=O)n(Cc2ccccc2)c1` [Example 266, 3-(Aminomethyl)-1-benzyl-5-(3,5-dimethylisoxazol-4-yl)pyridin-2(1H)-one] was tested, and the “FRET activity (IC50 <30 μM) BRD4(1)” value was “Not Active”.
